“Also recorded” adds a separate entry of the source.
Columns and labels:
[1] = disclosed in co-owned U.S. Provisional Application No. 62/535,754; cited from earlier work
[2] = system: T1, histone deacetylases (HDAC); experiment: in vitro HDAC assay (Fluor de Lys Green kit, Enzo); type: biochemical; conditions: sodium salt
T1 construct: other: sodium salt; Fluor de Lys Green kit; same assay as S-BHB
Protocol: (§1) The activity of S-BHB and R-BHB enantiomers in inhibiting histone deacetylases was tested. This is an in vitro HDAC assay performed using the sodium salt of S-BHB and R-BHB with a commercial assay kit, Fluor de Lys Green from Enzo.

[3] = system: histone deacetylases (HDAC); experiment: in vitro HDAC assay (Fluor de Lys Green kit, Enzo); type: biochemical; conditions: comparison with a different, previously published assay
Protocol: as §1

[4] = humans on a normal diet, ingested orally; cited from earlier work
[5] = ingested as a drink, compared to equivalent calories as carbohydrate; cited from earlier work

IC50 ([2]; Fluor de Lys Green kit, read-out: HDAC inhibition IC50)	Compound	serum half-life compared to the R-enantiomer [1]	inhibition of deacetylase activity (in words) [2]	potency for HDAC inhibition relative to published potency of R-BHB in a different assay (Shimazu et al., Science 2013) [3]	level of ketosis [4]	performance in cycling time-trial test [5]	maximum inhibition of HDAC activity ([2]; same assay as S-BHB)
7.3 mM	C[C@H](O)CC(=O)O [S-BHB, (S)-β-hydroxybutyric acid]	substantially improved	even more effective than R-BHB; also recorded: dose-dependent inhibition	≤ 2 fold	–	–	–
–	C[C@@H](O)CCOC(=O)C[C@@H](C)O [R-3-hydroxybutyryl R-3-hydroxybutyrate, (R) 3-hydroxybutyryl (R) 3-hydroxy butyrate]	–	–	–	~6000 µM	improved performance	–
–	C[C@@H](O)CC(=O)O [R-BHB, R-β-Hydroxybutyrate, reference compound]	–	partial inhibition	–	–	–	about 50%

Source: patent publication US12037317B2, “Synthesis of 3-hydroxybutyryl 3-hydroxybutyrate and related compounds” (Buck Institute for Research on Aging, priority 2018, dated 2024)
